Measurements from ChEMBL document CHEMBL1143569, “Predicting human serum albumin affinity of interleukin-8 (CXCL8) inhibitors by 3D-QSPR approach” (J Med Chem, 2005).

Target: albumin (Homo sapiens, UniProt P02768)
Assay: Percentage plasma protein binding towards human serum albumin
Assay type: cell-free
Conditions: read-out: PB (converted)

Sequence of albumin (P02768 whole entry): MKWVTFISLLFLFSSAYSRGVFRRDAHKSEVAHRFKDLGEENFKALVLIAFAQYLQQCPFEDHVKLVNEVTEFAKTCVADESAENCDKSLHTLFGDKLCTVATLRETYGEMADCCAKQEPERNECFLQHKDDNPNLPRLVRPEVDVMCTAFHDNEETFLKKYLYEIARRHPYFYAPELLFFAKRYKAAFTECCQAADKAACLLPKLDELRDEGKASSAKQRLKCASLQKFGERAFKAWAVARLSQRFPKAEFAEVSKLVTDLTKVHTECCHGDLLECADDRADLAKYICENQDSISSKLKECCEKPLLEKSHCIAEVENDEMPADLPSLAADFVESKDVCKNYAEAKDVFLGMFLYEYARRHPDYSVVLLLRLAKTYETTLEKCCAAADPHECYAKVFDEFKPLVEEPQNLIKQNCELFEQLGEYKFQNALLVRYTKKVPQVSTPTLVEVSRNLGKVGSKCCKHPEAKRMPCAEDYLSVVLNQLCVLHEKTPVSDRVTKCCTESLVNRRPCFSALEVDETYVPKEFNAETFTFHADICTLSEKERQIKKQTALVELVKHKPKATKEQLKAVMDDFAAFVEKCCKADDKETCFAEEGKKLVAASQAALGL

Structure (SMILES)	fraction unbound
CC1=C(CC(=O)O)c2cc(F)ccc2/C1=C\c1ccc([S+](C)[O-])cc1 (stereo unspecified)	0.06
CC(C)Cc1ccc([C@@H](C)C(=O)NCCCN(C)C)cc1	0.249
CC(Cc1ccc([C@@H](C)C(=O)NS(C)(=O)=O)cc1)C(=O)O (stereo partly specified)	0.298
C[C@@H](C(=O)NCCN1CCCC1)c1ccc(OS(=O)(=O)C(F)(F)F)cc1	0.3
CC(C)Cc1ccc([C@@H](C)C(=O)NCCCN2CCCCC2)cc1	0.149
CC(C)Cc1ccc([C@@H](C)C(=O)N[C@H](C)C(=O)O)cc1	0.04
COc1ccc2c(c1)CN(c1ccc(C(C)C(=O)O)cc1)C2=O (stereo unspecified)	0.02
C[C@@H](C(=O)NCCCN1CCCC1)c1ccc(OS(=O)(=O)C(F)(F)F)cc1	0.38
C[C@@H](C(N)=O)c1ccc(OS(=O)(=O)C(F)(F)F)cc1	0.08
CC(C)Cc1ccc([C@@H](C)C(=O)NCCOCCO)cc1	0.169
CCCNC(=O)NS(=O)(=O)c1ccc(Cl)cc1 [CHLORPROPAMIDE]	0.04
CC(C(=O)O)c1ccc(-c2ccccc2)c(F)c1 (stereo unspecified) [FLURBIPROFEN]	0.005
NS(=O)(=O)c1cc2c(cc1Cl)NCNS2(=O)=O [HYDROCHLOROTHIAZIDE]	0.42
O=C(c1ccccc1)c1ccc2n1CCC2C(=O)O (stereo unspecified) [KETOROLAC]	0.008
C[C@@H](C(=O)NS(C)(=O)=O)c1ccc(OS(=O)(=O)C(F)(F)F)cc1 [LADARIXIN]	0.002
CS(=O)(=O)Nc1ccc([N+](=O)[O-])cc1Oc1ccccc1 [NIMESULIDE]	0.1
CC(C)Cc1ccc([C@@H](C)C(=O)NS(C)(=O)=O)cc1 [REPARIXIN]	0.001
CC(C)NCC(O)c1ccc(NS(C)(=O)=O)cc1 (stereo unspecified) [SOTALOL]	0.825
Cc1ccc(S(=O)(=O)NC(=O)NN2CCCCCC2)cc1 [TOLAZAMIDE]	0.03
Cc1ccc(C(=O)c2ccc(CC(=O)O)n2C)cc1 [TOLMETIN]	0.004
Cc1cc(CC(=O)O)n(C)c1C(=O)c1ccc(Cl)cc1 [ZOMEPIRAC]	0.015
